IC50 and Drug metabolism data for two compounds are collected here from ChEMBL document CHEMBL5257138, “Cytosolic Enzymes Generate Cannabinoid Metabolites 7-Carboxycannabidiol and 11-Nor-9-carboxytetrahydrocannabinol” (ACS Med Chem Lett, 2023).

Holding throughout (format): ADME, subcellular
The nature of data set [1]: Drug metabolism in human liver S9 fraction assessed as reduction in metabolite 11-COOH-THC formation by measuring WIN18446 IC50 incubated for 10 mins in presence of NAD+ by LC-MS/MS analysis.
Data set [2] can be described thus: Drug metabolism in human liver S9 fraction assessed as reduction in metabolite 11-COOH-THC formation by measuring hydralazine IC50 incubated for 20 mins in presence of NAD+ by LC-MS/MS analysis.
A short description of data set [3]: Drug metabolism in human liver S9 fraction assessed as metabolite 11-COOH-THC formation at 1 uM incubated for 10 mins in presence of NAD+ by LC-MS/MS analysis. The settings on record: s9, 10 min.
The nature of data set [4]: Drug metabolism in human liver S9 fraction assessed as metabolite 7-COOH-CBD formation at 1 uM incubated for 20 mins in presence of NADPH and NAD+ by LC-MS/MS analysis. The settings on record: s9, 20 min.
Data set [5] is described as follows: Drug metabolism in human liver S9 fraction assessed as metabolite 7-COOH-CBD formation at 1 uM incubated for 20 mins in presence of NADPH by LC-MS/MS analysis. As to conditions: s9, 20 min.
The nature of data set [6]: Drug metabolism in human liver cytosol assessed as reduction in metabolite 7-COOH-CBD formation by measuring WIN18446 IC50 in presence of NAD+ measured after 30 mins by LC-MS/MS analysis.
The nature of data set [7]: Drug metabolism in human liver cytosol assessed as metabolite 7-COOH-CBD formation at 1 uM incubated for 20 mins in presence of NADPH and NAD+ by LC-MS/MS analysis.

In the case of `CCCCCc1cc(O)c2c(c1)OC(C)(C)[C@@H]1CCC(CO)=C[C@@H]21`, the figures for the 50% inhibitory concentration (IC50) in data set [1] and in data set [2] were more than 60000 nM and 53 nM, respectively. Moreover, the Drug metabolism entry in data set [3] is “Metabolite_Detected”.
`C=C(C)[C@@H]1CCC(CO)=C[C@H]1c1c(O)cc(CCCCC)cc1O`: the results for the Drug metabolism entry in data set [4], in data set [5] and in data set [7] were “Metabolite_Detected”, “Metabolite_Notdetected” and “Metabolite_Detected”, respectively. In addition, in data set [6], the IC50 (in general, the concentration at which inhibition is half-maximal) was found to be 285 nM.
